The results in this text go back to PubChem BioAssay (NCI).

Some test systems named below: SNB-19 CNS; EKVX NSCLC; HCT-116 colon; SK-MEL-28 melanoma; MCF7 breast; U251 CNS; K-562 leukemia; MALME-3M melanoma; RXF 393 renal; SF-539 CNS.
Common to all, as to assay: inhibition of tumour cell growth, NCI panel, 48 h

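96-well plates; 48 h exposure; 5 concentrations. Endpoints by linear interpolation between flanking doses. Not reached: highest tested concentration assigned. GI50 marks 50% less growth. TGI denotes the concentration required for complete inhibition of growth.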

On to `CC1OC(OC2C(OC(=O)[C@]34CCC(C)(C)C[C@H]3C3=CC[C@@H]5[C@@]6(C)CC[C@H](OC7OC(C(=O)O)C(O)C(O)C7O)C(C)(C)[C@@H]6CC[C@@]5(C)[C@]3(C)C[C@H]4O)OCC(O)C2O)C(O)C(OC2OCC(O)(CO)C2O)C1OC1OCC(O)C(O)C1O` (stereo not given in full), for which the TGI stood at 23.8 µM in the assay with SNB-19 CNS; 16.2 µM with EKVX NSCLC; 19.8 µM in the assay with HCT-116 colon; 15.2 µM with SK-MEL-28 melanoma; 18.3 µM with MCF7 breast; 21.4 µM in the assay with U251 CNS. Also, the TGI in the assay on K-562 leukemia was determined as 35.8 µM; in the assay with MALME-3M melanoma, 24.7 µM; with RXF 393 renal, 31.5 µM.

For the molecule `CCOC(=O)Cn1c(=O)c2nc(SC)sc2n(-c2ccccc2)c1=O`, the TGI with SNB-19 CNS, in the assay with EKVX NSCLC, in the assay with HCT-116 colon, in the assay on SK-MEL-28 melanoma, in the assay on MCF7 breast and with U251 CNS was more than 100 µM each time. The TGI with K-562 leukemia, with MALME-3M melanoma and in the assay on RXF 393 renal was more than 100 µM throughout.

Consider `O=c1c2sc(=S)n(-c3ccc(F)cc3)c2ncn1/N=C/c1ccc(F)cc1F`, for which the TGI is 62.6 µM in the assay with SNB-19 CNS; 39.2 µM with EKVX NSCLC; more than 100 µM with HCT-116 colon; more than 100 µM in the assay with SK-MEL-28 melanoma; more than 100 µM in the assay with MCF7 breast; 52 µM in the assay on U251 CNS. For the same molecule, the TGI with K-562 leukemia was more than 100 µM; with MALME-3M melanoma it was 41.6 µM; in the assay with RXF 393 renal, 45.5 µM.

As for `COc1ccc2c(C)cc(=O)oc2c1OC`, the TGI in the assay with SNB-19 CNS, in the assay on EKVX NSCLC, in the assay on HCT-116 colon, in the assay with SK-MEL-28 melanoma, with MCF7 breast and with U251 CNS was more than 100 µM throughout. Further, the TGI with K-562 leukemia and in the assay on MALME-3M melanoma was more than 100 µM throughout.

With `COc1cccc2c1OC1(C=C2)Oc2ccccc2C(=O)N1C` (stereo not given), the TGI in the assay with SNB-19 CNS, with EKVX NSCLC, in the assay with HCT-116 colon, with SK-MEL-28 melanoma, with MCF7 breast and in the assay on U251 CNS was more than 100 µM throughout. The TGI in the assay with K-562 leukemia and in the assay on RXF 393 renal was more than 100 µM in each case.

With `CC1CCC(C(=O)O)(C(Br)C(=O)O)CC1` (stereo not given), the TGI with SNB-19 CNS, with EKVX NSCLC, with HCT-116 colon, in the assay on SK-MEL-28 melanoma, in the assay on U251 CNS and in the assay on K-562 leukemia was more than 100 µM in each case. The TGI in the assay on RXF 393 renal was more than 100 µM.

As for `CCCCCCOc1ccc(C(=O)NOC)cc1`, the TGI in the assay with SNB-19 CNS, with EKVX NSCLC, with HCT-116 colon, in the assay with SK-MEL-28 melanoma, in the assay on MCF7 breast and with U251 CNS was more than 100 µM in each case. Besides, the TGI with K-562 leukemia, in the assay on SF-539 CNS and with RXF 393 renal was more than 100 µM throughout.

On to `CCOC(=O)c1c(C)nc2c3ccccc3c(C#N)c(C)n12`, for which the TGI in the assay with SNB-19 CNS, in the assay on EKVX NSCLC, in the assay on HCT-116 colon, with SK-MEL-28 melanoma, in the assay on MCF7 breast and in the assay with U251 CNS was more than 100 µM throughout. The TGI in the assay with K-562 leukemia, with SF-539 CNS and in the assay on RXF 393 renal was more than 100 µM throughout.

As for `Cc1cc2c3c(nc4ccccc42)C(=O)c2ccccc2-c3n1`, the TGI in the assay on SNB-19 CNS is more than 100 µM; in the assay on EKVX NSCLC, more than 100 µM; in the assay on HCT-116 colon it was 75.4 µM; in the assay with SK-MEL-28 melanoma, 43.3 µM; in the assay with MCF7 breast, 51.2 µM; with U251 CNS, more than 100 µM. Moreover, the results for the TGI in the assay on K-562 leukemia, in the assay on SF-539 CNS and in the assay on RXF 393 renal were 15.1 µM, 61.2 µM and more than 100 µM, respectively.

For the molecule `O=C(O)CCC(=O)OC1N=C(c2ccccc2Cl)c2cc([N+](=O)[O-])ccc2NC1=O` (stereo not given), the TGI with SNB-19 CNS is more than 100 µM; with EKVX NSCLC, more than 100 µM; in the assay with HCT-116 colon, 65.6 µM; in the assay on SK-MEL-28 melanoma, more than 100 µM; with MCF7 breast, more than 100 µM; in the assay with U251 CNS, more than 100 µM. In addition, the TGI with MALME-3M melanoma and in the assay with RXF 393 renal was more than 100 µM throughout.

Regarding `CO[C@H]1/C=C(/C)CCC[C@H](C)[C@H](O)[C@@H](C)C(=O)C(C)(C)[C@@H](O)CC(=O)O[C@@H]1/C(C)=C/c1csc(C)n1`, the GI50 with SNB-19 CNS was 0.0486 µM; in the assay on EKVX NSCLC it was 0.0432 µM; in the assay with HCT-116 colon, less than 0.0129 µM; in the assay on SK-MEL-28 melanoma, 0.0445 µM; in the assay with MCF7 breast, less than 0.01 µM; in the assay with U251 CNS it was 0.0143 µM. For the same molecule, the GI50 in the assay with K-562 leukemia was less than 0.0173 µM; with MALME-3M melanoma, 0.017 µM; with RXF 393 renal, 0.0187 µM. Further, the TGI in the assay on SNB-19 CNS, in the assay with EKVX NSCLC, with HCT-116 colon, with SK-MEL-28 melanoma, with MCF7 breast and in the assay on U251 CNS was more than 100 µM in each case. Also, the results for the TGI in the assay on K-562 leukemia, in the assay with MALME-3M melanoma and in the assay on RXF 393 renal were more than 100 µM, more than 100 µM and 0.0725 µM, respectively.

Turning to `OCCc1ccsc1-c1sc(-c2cc(CCO)c(-c3sccc3CCO)s2)cc1CCO`, the TGI in the assay with SNB-19 CNS amounted to 36.5 µM; with EKVX NSCLC, 32.4 µM; with HCT-116 colon it was 43.8 µM; in the assay on SK-MEL-28 melanoma, 41.4 µM; with MCF7 breast it was 31 µM; in the assay on U251 CNS, 49 µM. Moreover, the TGI in the assay with K-562 leukemia is more than 100 µM; with MALME-3M melanoma, 23.7 µM; with RXF 393 renal, 9.05 µM.

Regarding `CS(=O)(=O)OCC(CCl)(CCl)CCl`, the TGI with SNB-19 CNS, with HCT-116 colon, in the assay on SK-MEL-28 melanoma, with MCF7 breast, in the assay with U251 CNS and in the assay with K-562 leukemia was more than 100 µM in each case. For the same molecule, the TGI in the assay with RXF 393 renal is more than 100 µM.

With `Cc1ccc(C(=C2Sc3ccccc3S2)C(=C2Sc3ccccc3S2)c2ccc(C)s2)s1`, the TGI in the assay with SNB-19 CNS, in the assay on EKVX NSCLC, in the assay with HCT-116 colon, in the assay with SK-MEL-28 melanoma, with MCF7 breast and in the assay with U251 CNS was more than 100 µM in each case. For the same molecule, the TGI with K-562 leukemia, in the assay on MALME-3M melanoma and with RXF 393 renal was more than 100 µM throughout.

Take `COc1ccc(C2=N/C(=C\c3ccccc3)C(=O)O2)cc1`: the TGI with SNB-19 CNS, with EKVX NSCLC, in the assay on SK-MEL-28 melanoma, with MCF7 breast, with U251 CNS and in the assay on K-562 leukemia was more than 100 µM each time. For the same molecule, the TGI in the assay with SF-539 CNS and in the assay with RXF 393 renal was more than 100 µM throughout.

Regarding `O=C(CC(C(=O)c1ccsc1)c1ccc2c(c1)OCO2)c1ccccc1` (stereo not given), the TGI in the assay with EKVX NSCLC, with HCT-116 colon, in the assay on SK-MEL-28 melanoma, in the assay on MCF7 breast, with U251 CNS and in the assay on K-562 leukemia was more than 100 µM each time. For the same molecule, the TGI with SF-539 CNS and in the assay on RXF 393 renal was more than 100 µM each time.

With `COc1ccc(NC(=O)CC(=O)N2N=C(N3c4ccccc4Sc4ccccc43)CC2c2ccccc2)cc1` (stereo not given), the TGI with SNB-19 CNS, with EKVX NSCLC, with HCT-116 colon, in the assay on SK-MEL-28 melanoma, in the assay on MCF7 breast and in the assay on U251 CNS was more than 100 µM each time. The TGI in the assay with K-562 leukemia, in the assay on SF-539 CNS and with RXF 393 renal was more than 100 µM in each case.

Take `CCOC(=O)C1=C(C)C2C=C(c3cccs3)CC(c3ccc(Cl)cc3)=C2OC1=O` (stereo not given): the TGI in the assay on SNB-19 CNS is more than 100 µM; in the assay with EKVX NSCLC it was more than 100 µM; with HCT-116 colon, 69.2 µM; in the assay with SK-MEL-28 melanoma, more than 100 µM; with MCF7 breast, more than 100 µM; in the assay with U251 CNS, more than 100 µM. Moreover, the TGI was 34.4 µM in the assay on K-562 leukemia and more than 100 µM in the assay with RXF 393 renal.

For the molecule `CN(C)C1(N(C)C)Oc2c(c(=O)n(C)c(=O)n2C)C(c2ccc(Br)cc2)C1(F)F` (stereo not given), the TGI in the assay with SNB-19 CNS, with EKVX NSCLC, in the assay with HCT-116 colon, in the assay on SK-MEL-28 melanoma, in the assay with MCF7 breast and with U251 CNS was more than 100 µM each time. The same molecule showed a TGI in the assay on RXF 393 renal of more than 100 µM.

With `CC1(C)C2CCC1(C)[C@H](n1c(=O)n([C@@H]3CC4CCC3(C)C4(C)C)c(=O)n([C@@H]3CC4CCC3(C)C4(C)C)c1=O)C2`, the TGI in the assay with EKVX NSCLC is 67.1 µM; with HCT-116 colon it was more than 100 µM; in the assay with SK-MEL-28 melanoma, more than 100 µM; in the assay with MCF7 breast it was more than 100 µM; in the assay on U251 CNS, more than 100 µM; in the assay on K-562 leukemia, more than 100 µM. Also, the results for the TGI in the assay on SF-539 CNS and in the assay on RXF 393 renal were 48.6 µM and 55.8 µM, respectively.

As for `CSc1nsc(-c2ccccc2)[s+]1`, the TGI in the assay on SNB-19 CNS, with EKVX NSCLC, in the assay on HCT-116 colon, with SK-MEL-28 melanoma, in the assay with U251 CNS and in the assay with K-562 leukemia was more than 100 µM in each case. The TGI in the assay with SF-539 CNS, in the assay with MALME-3M melanoma and in the assay with RXF 393 renal was more than 100 µM in each case.
